Measured values: US20120220665A1, “Inhibiting Neurotransmitter Reuptake” (MAYO FOUNDATION FOR MEDICAL EDUCATION AND RESEARCH, priority 2009, published 2012)

Tests used:
[1] = system: hSERT (S), hNET (N), hDAT (D); assay: Comparison of binding potency across the three human transporters; details: for Potency (rank order of transporter binding): S = hSERT, N = hNET, D = hDAT, order by KD; for Potency Range: highest KD / lowest KD among hSERT, hNET, hDAT
Experimental: (§1) HEK-293 cells expressing the recombinant hSERT or hDAT were incubated with Dulbecco's modified Eagles medium (MEM) supplemented with 0.1 mM nonessential amino acid solution for MEM, 5% v/v fetal bovine serum and […] penicillin/streptomycin solution. Cells expressing the hNET transporter were incubated with Dulbecco's modified Eagles medium supplemented with 10% v/v fetal bovine serum and 100 U/mL penicillin/streptomycin solution and 2 mM L-glutamine. All cells were grown until 70-80% confluent on 175 cm^2 flasks in a humidified 10% CO2/90% air environment at 37° C., with the selecting antibiotic Geneticin sulfate at […]. The cells were incubated in 10% CO2, 90% air at 37° C. and 100% humidity.
(§2) Cell membranes containing hSERT, hNET, or hDAT were prepared from the cell lines to assay ligand binding for each of the transporters. […] The washed cells were incubated for 5 minutes at 37° C. in 10 mL solution 1 containing 100 mM ethylene glycol-bis N,N,N′,N′-tetraacetic acid (EGTA). The cells were then scraped from the flask surface with a rubber spatula, placed into a centrifuge tube, and collected by centrifugation at 1000×g for 5 minutes at 4° C. The resulting supernatant was discarded, and the cell pellet was resuspended in 0.5 to1.0 mL of the appropriate binding buffer (described below). The resuspended cell pellet was homogenized using a Polytron for 10 seconds at setting 6. The resulting homogenate was centrifuged at about 36,000×g for 10 minutes at 4° C. The supernatant was discarded, and the pellet was resuspended in the same volume of the appropriate binding buffer and centrifuged again. The supernatant was discarded, and the final pellet containing cell membranes was resuspended in the appropriate binding buffer and stored at −80° C. until use.
(§3) Radioligand binding assays for the indicated transporters were performed as follows. To assess binding to the cloned hSERT, cells expressing hSERT were homogenized in 50 mM Tris-HCl with 120 mM NaCl and 5 mM KCl (pH 7.4). The binding reaction consisted of 10 μg cell membrane protein, 1.0 nM [^3H]citalopram (citalopram, [N-methyl-^3H], specific activity 79.0 Ci/mmol; PerkinElmer, Boston, Mass.), and varying concentrations of either unlabeled citalopram or the test compound. A reaction to determine non-specific binding consisted of 10 μg cell membrane protein, 0.5 nM [^3H]citalopram, and 1 μM final concentration of unlabeled citalopram. The reactions were incubated at 22° C. for 60 minutes. Following incubation, the reactions were terminated by rapid filtration through separate GF/B filter strips pretreated with 0.2% polyethylenimine in a 48-well Brandel cell harvester. The cell membrane-containing filter strips were then rinsed five times with ice-cold 0.9% NaCl. After rinsing, individual filters were cut from the strip and placed in a scintillation vial containing 6.5 mL of Redi-Safe (Beckman-Coulter, Fullerton, Calif.). Radioactivity was measured with a Beckman liquid scintillation counter (LS 6000TA).
(§4) To assess binding to the cloned hNET, cells expressing hNET were homogenized in 50 mM Tris-HCl with 300 mM NaCl and 5 mM KCl (pH 7.4). The binding reaction consisted of 5 μg cell membrane protein, 0.5 nM [^3H]nisoxetine (nisoxetine HCl, [N-methyl-^3H], specific activity 82.0 Ci/mmol; Amersham, Arlington Hts., Ill.), and varying concentrations of either unlabeled nisoxetine or the test compound. A reaction to determine non-specific binding consisted of 5 μg cell membrane protein, 0.5 nM [^3H]nisoxetine, and 1 μM final concentration of unlabeled nisoxetine. The reactions were incubated at 22° C. for 60 minutes. Following incubation, the reactions were terminated by rapid filtration through separate GF/B filter strips pretreated with 0.2% polyethylenimine in a 48-well Brandel cell harvester. The cell membrane-containing filter strips were then rinsed five times with ice-cold 0.9% NaCl.

[2] = target: T1, human serotonin transporter (hSERT) (Homo sapiens, UniProt P31645); assay: Human transporter radioligand binding, hSERT ([3H]citalopram, HEK-293 membranes); details: HCl salts of test compounds; n ≥ 3, values marked b n = 1; read-out: Equilibrium Dissociation Constant (KD) for Transporter Binding (Geometric Mean; nM ± SEM) hSERT (S)
T1 construct: expressed in transfected cells; host or cells: HEK-293, stably transfected; membranes
Experimental: as §1, §2, §3
(§5) Following the radioligand binding assays, the data were analyzed using the
(§6) The program was modified to calculate the Hill coefficient (nH). Data are presented as geometric mean±S.E.M. of at least three independent experiments. One-component models and two-component models were compared using the root mean square error of each fit and the F test.

[3] = target: T2, human norepinephrine transporter (hNET) (Homo sapiens, UniProt P23975); assay: Human transporter radioligand binding, hNET ([3H]nisoxetine, HEK-293 membranes); details: HCl salts of test compounds; n ≥ 3, values marked b n = 1; read-out: Equilibrium Dissociation Constant (KD) for Transporter Binding (Geometric Mean; nM ± SEM) hNET (N)
T2 construct: expressed in transfected cells; host or cells: HEK-293, stably transfected; membranes
Experimental: as §1, §2
as §4, with “NaCl. After rinsing, individual filters were cut from the strip and placed in a scintillation vial containing 6.5 mL of Redi-Safe (Beckman-Coulter, Fullerton, Calif.). Radioactivity was measured with a Beckman liquid scintillation counter (LS 6000TA).” for “NaCl.”
as §5, §6

[4] = target: T3, human dopamine transporter (hDAT) (Homo sapiens, UniProt Q01959); assay: Human transporter radioligand binding, hDAT ([3H]WIN35428, HEK-293 membranes); details: HCl salts of test compounds; n ≥ 3, values marked b n = 1; read-out: Equilibrium Dissociation Constant (KD) for Transporter Binding (Geometric Mean; nM ± SEM) hDAT (D)
T3 construct: expressed in transfected cells; host or cells: HEK-293, stably transfected; membranes
Experimental: as §1, §2
To assess binding to the cloned hDAT, cells expressing hDAT were homogenized in 50 mM Tris-HCl with 120 mM NaCl (pH 7.4). The binding reaction contained 15 μg cell membrane protein, 1 nM [^3H]WIN35428 (WIN35428, [N-methyl-^3H], specific activity 85.9 Ci/mmol; PerkinElmer, Boston, Mass.), and varying concentrations of either unlabeled WIN35428 or the test compound. A reaction to determine non-specific binding contained 15 μg cell membrane protein, 1 nM [^3H]WIN35428, and 10 μM final concentration of unlabeled WIN35428. The reactions were incubated at 22° C. for 1 hour. Following incubation, the reactions were terminated by rapid filtration through separate GF/B filter strips pretreated with 0.2% polyethylenimine in a 48-well Brandel cell harvester. The cell membrane-containing filter strips were then rinsed five times with ice-cold 0.9% NaCl. After rinsing, individual filters were cut from the strip and placed in a scintillation vial containing 6.5 mL of Redi-Safe (Beckman-Coulter, Fullerton, Calif.). Radioactivity was measured with a Beckman liquid scintillation counter (LS 6000TA).
as §5, §6

T3 sequence (Q01959 whole entry): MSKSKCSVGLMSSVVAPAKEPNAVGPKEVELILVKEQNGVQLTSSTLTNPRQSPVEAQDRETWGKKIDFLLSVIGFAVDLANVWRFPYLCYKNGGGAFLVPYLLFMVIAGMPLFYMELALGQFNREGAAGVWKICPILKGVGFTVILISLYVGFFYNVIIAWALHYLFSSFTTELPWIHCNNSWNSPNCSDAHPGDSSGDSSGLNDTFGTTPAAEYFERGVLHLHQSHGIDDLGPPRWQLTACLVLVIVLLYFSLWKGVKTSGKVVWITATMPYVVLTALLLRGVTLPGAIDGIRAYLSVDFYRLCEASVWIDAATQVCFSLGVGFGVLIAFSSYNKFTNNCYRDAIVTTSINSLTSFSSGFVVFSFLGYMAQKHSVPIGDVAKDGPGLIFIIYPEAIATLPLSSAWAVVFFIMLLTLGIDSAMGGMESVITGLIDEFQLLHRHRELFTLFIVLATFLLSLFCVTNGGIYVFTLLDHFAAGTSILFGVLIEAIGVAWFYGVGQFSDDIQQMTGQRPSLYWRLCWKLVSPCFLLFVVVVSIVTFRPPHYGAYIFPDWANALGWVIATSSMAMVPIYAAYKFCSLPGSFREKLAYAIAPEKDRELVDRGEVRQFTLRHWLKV
T2 sequence (P23975 whole entry): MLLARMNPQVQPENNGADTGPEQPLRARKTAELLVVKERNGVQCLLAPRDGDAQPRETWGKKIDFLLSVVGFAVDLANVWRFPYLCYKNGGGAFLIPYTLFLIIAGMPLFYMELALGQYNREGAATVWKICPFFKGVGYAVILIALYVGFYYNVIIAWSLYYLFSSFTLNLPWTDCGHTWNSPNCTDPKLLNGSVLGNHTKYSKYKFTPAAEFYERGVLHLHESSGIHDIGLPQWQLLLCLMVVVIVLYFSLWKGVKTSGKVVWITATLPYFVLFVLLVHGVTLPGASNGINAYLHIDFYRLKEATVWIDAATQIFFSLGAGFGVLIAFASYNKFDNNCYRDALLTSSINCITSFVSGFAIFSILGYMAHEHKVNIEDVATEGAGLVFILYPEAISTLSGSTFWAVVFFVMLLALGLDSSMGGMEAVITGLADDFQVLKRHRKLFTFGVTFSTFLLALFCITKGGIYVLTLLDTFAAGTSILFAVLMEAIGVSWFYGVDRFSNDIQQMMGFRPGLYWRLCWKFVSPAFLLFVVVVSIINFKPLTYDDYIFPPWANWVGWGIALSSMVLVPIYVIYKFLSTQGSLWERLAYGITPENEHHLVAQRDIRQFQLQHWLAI
T1 sequence (P31645 whole entry): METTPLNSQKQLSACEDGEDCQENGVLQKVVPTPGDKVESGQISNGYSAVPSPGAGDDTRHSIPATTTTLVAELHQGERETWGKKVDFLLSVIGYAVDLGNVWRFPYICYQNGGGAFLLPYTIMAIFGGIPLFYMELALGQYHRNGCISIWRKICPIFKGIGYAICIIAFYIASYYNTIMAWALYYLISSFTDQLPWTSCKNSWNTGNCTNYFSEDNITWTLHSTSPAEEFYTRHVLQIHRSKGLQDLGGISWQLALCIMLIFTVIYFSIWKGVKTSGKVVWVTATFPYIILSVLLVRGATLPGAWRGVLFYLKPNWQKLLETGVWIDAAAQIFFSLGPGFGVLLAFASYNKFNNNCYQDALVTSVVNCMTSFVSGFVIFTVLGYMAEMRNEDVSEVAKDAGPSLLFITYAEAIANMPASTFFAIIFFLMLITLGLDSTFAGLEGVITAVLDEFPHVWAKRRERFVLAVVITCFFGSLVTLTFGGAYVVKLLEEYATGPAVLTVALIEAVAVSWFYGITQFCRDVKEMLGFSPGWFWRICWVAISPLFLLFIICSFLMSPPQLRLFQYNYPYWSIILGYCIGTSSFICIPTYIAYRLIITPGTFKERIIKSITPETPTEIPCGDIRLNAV

Potency (rank order of transporter binding) [1] | Kd [2] | Kd [3] | Kd [4] | Potency Range [1] | Compound
S > N > D | 7 ± 0.5 nM | 45 ± 3 nM | 280 ± 20 nM | 40 | CN(C)C[C@H](c1ccc2ccccc2c1)[C@@H](F)c1ccccc1 [MCJ002-F-RS, (2S,3R)-3-fluoro-N,N-dimethyl-2-(naphthalen-2-yl)-3-phenylpropan-1-amine]
N > S > D | 11900 nM | 2660 nM | 75200 nM | 28 | CNC[C@H](c1ccccc1)[C@@H](O)c1ccc(F)cc1 [MCJ001-F—Ph—OH-RS/SR, (1R,2S)-1-(4-fluorophenyl)-3-(methylamino)-2-phenylpropan-1-ol]
D > S > N | 3320 nM | 4500 nM | 1520 nM | 3 | CNCC(c1ccccc1)C(O)c1ccc(Br)cc1 [MCJ001-Br—Ph—OH-RS/SR, (1R,2S/1S,2R)-1-(4-bromophenyl)-3-(methylamino)-2-phenylpropan-1-ol]
S > N > D | 27 ± 4 nM | 49 ± 4 nM | 250 ± 40 nM | 9 | CNC[C@H](c1ccc2ccccc2c1)[C@@H](O)c1ccc(F)cc1 [MCJ001-4F—Ph—OH-RS/SR, (1R,2S)-1-(4-fluorophenyl)-3-(methylamino)-2-(naphthalen-2-yl)propan-1-ol]
S > N > D | 7.4 ± 0.9 nM | 90 ± 10 nM | 390 ± 30 nM | 53 | CN(C)C[C@H](c1ccc2ccccc2c1)[C@@H](Cl)c1ccccc1 [MCJ002-Cl-RS, (2S,3R)-3-chloro-N,N-dimethyl-2-(naphthalen-2-yl)-3-phenylpropan-1-amine]
S > N > D | 8.3 ± 0.9 nM | 50 ± 8 nM | 270 ± 30 nM | 32 | CN(C)C[C@H](c1ccc2ccccc2c1)[C@H](Cl)c1ccccc1 [MCJ002-Cl-SS, (2S,3S)-3-chloro-N,N-dimethyl-2-(naphthalen-2-yl)-3-phenylpropan-1-amine]
D > N > S | 1260 nM | 514 nM | 107 nM | 12 | CNC[C@H](c1ccccc1)[C@H](O)c1ccc(F)cc1 [MCJ001-F—Ph—OH-SS/RR, (1S,2S)-1-(4-fluorophenyl)-3-(methylamino)-2-phenylpropan-1-ol]
N > S > D | 50 ± 3 nM | 29 ± 1 nM | 180 ± 20 nM | 6 | CNC[C@H](c1ccc2ccccc2c1)[C@@H](OCCCCCCCO[C@@H](c1ccccc1)[C@H](CNC)c1ccc2ccccc2c1)c1ccccc1 [MCJ001-Dimer7-SS, (2S,2′S,3R,3′R)-3,3′-(heptane-1,7-diylbis(oxy))bis(N-methyl-2-(naphthalen-2-yl)-3-phenylpropan-1-amine)]
N > S > D | 33 ± 5 nM | 11 ± 1 nM | 90 ± 10 nM | 8 | CNC[C@H](c1ccc2ccccc2c1)[C@H](O)c1ccc(F)cc1 [MCJ001-4F—Ph—OH-SS/RR, (1S,2S)-1-(4-fluorophenyl)-3-(methylamino)-2-(naphthalen-2-yl)propan-1-ol]
– | 7300 nM | – | 28400 nM | – | CNCC(c1ccccc1)C(O)c1ccc(Br)cc1 [MCJ001-Br—Ph—OH-SS/RR, (1S,2S/1R,2R)-1-(4-bromophenyl)-3-(methylamino)-2-phenylpropan-1-ol]

Compound | Potency (rank order of transporter binding) [1] | Kd [2] | Kd [3] | Kd [4] | Potency Range [1]
CCN(CC)C(=O)C1(c2ccccc2)CC1CN (stereo not shown) [Milnacipran, reference compound] | S > N > D | – | – | – | –
CNCC[C@H](Oc1cccc2ccccc12)c1cccs1 [Duloxetine, reference compound] | S > N > D | – | – | – | –
CN(C)CCCN1c2ccccc2CCc2ccccc21 [Imipramine, reference compound] | S > N > D | – | – | – | –
CNC[C@H](c1ccc2ccccc2c1)[C@H](O)c1ccccc1 [PRC200-SS, (1S,2S)-3-(methylamino)-2-(naphthalen-2-yl)-1-phenylpropan-1-ol] | N > S > D | 3.8 ± 0.3 nM | 0.6 ± 0.2 nM | 27 ± 3 nM | 45
CCOc1ccccc1OC(c1ccccc1)C1CNCCO1 (stereo not shown) [Reboxetine, reference compound] | N > S > D | – | – | – | –
CNC[C@H](c1ccccc1)[C@@H](O)c1ccc2ccccc2c1 [MCJ001-NA-Ph—OH-RS/SR, (1R,2S/1S,2R)-3-(methylamino)-1-(naphthalen-2-yl)-2-phenylpropan-1-ol] | S > N > D | 75 ± 2 nM | 7620 nM | 8900 ± 20 nM | 120
CNC[C@@H](c1ccccc1)[C@@H](O)c1ccc2ccccc2c1 [MCJ001-NA-Ph—OH-SS/RR, (1S,1R/2S,2R)-3-(methylamino)-1-(naphthalen-2-yl)-2-phenylpropan-1-ol] | S > > N > D | 16 ± 2 nM | 1390 nM | 5800 ± 400 nM | 370
CN1Cc2c(N)cccc2C(c2ccccc2)C1 (stereo not shown) [Nomifensine, reference compound] | N > D > S | – | – | – | –
